Laboratory results reported in patent publication US20230255965A1, “TRPV4 INHIBITOR AS A THERAPEUTIC AGENT FOR OCULAR DISEASES” (RaQualia Pharma Inc., priority 2020, published 2023).
Read-outs that look alike come from different tables or passages of the source.

Columns and labels:
[1] = system: mouse retinal vein occlusion model; assay: Histological evaluation for retinal vein occlusion: thickness of the retinal inner nuclear layer (INL), HE staining; assay type: in vivo; settings: single intravitreal administration of 2 μL, 24 hours after irradiation, vs vehicle
Procedure: (§1) Eight-week-old male ddY mice are anesthetized with a mixture of ketamine (120 mg/kg) and xylazine (6 mg/kg) administered intramuscularly. After that, 0.15 mL of a photosensitizer, rose bengal (20 mg/kg) is administered into the tail vein, and a laser (wavelength 532 nm) is irradiated into a vein three optic disc diameters away from the optic disc in the mouse right eye to occlude the retinal vein and form a pathological condition. Laser irradiation is performed using an attachment of Micron4 (Phoenix Research lab., CA, USA), which is a fundus imaging device, under prescribed laser irradiation conditions (wavelength 532 nm, spot size 50 μm, irradiation time 5 seconds, laser power 50 mW). The vein is occluded by 10 to 15 laser irradiations per vein.
Immediately after laser irradiation, a TRPV4 inhibitor is administered, and 24 hours after irradiation, the eyeball is removed and a retinal histopathology specimen is prepared. Hematoxylin-eosin (HE) staining is performed to measure the thickness of the retinal inner nuclear layer (INL). Other stains (e.g., TUNEL stain) may be used for analysis as needed.
Administration of a TRPV4 inhibitor is performed by intravitreal administration (local administration). The conditions of the solution for administration are investigated in advance, and the concentration for intravitreal administration is determined. However, if the conditions for systemic administration are met, systemic administration may be included in the group composition. For intravitreal administration, the dosage should be 2 μL/eye as a single dose. For systemic administration, the number of doses and dosage should be determined after a separate consideration.
After a single intravitreal administration of 2 μL of a TRPV4 inhibitor (25 μM, 250 μM) or vehicle, whether the TRPV4 inhibitor restores the retinal edema is evaluated.

[2] = system: human retinal microvascular endothelial cells (HRMECs); assay: Cell permeability using human retinal microvascular endothelial cells, transendothelial electrical resistance (TEER); assay type: cell-based; settings: for inhibition at 10 µM: Homo sapiens, HRMEC, read-out: inhibition rate of increased vascular permeability (TEER); for change of transepithelial electrical resistance (TEER values): 24 hours after addition
Procedure: Human retinal microvascular endothelial cells (HRMECs) are seeded onto Transwell inserts at a density of 1.0×10^5 cells/mL. The medium is changed every other day and the cells are cultured for 7 days. Transendothelial electrical resistance (TEER) is measured using a measurement device and cup-shaped electrode (Endohm-6; World Precision Instruments, USA). One hour after the addition of a TRPV4 inhibitor (final concentration: 1 μM, 10 μM) or buffer for evaluation to cells, VEGF (final concentration: 10 ng/mL) or GSK1016790A, a TRPV4 agonist (final concentration: 10 nM) is added, and 24 hours after the addition, transepithelial electrical resistance values (TEER values) is measured 24 hours after addition. The transepithelial electrical resistance value (TEER value) is an index for evaluating barrier functions such as tight junctions of cells.

[3] = system: tumor necrosis factor alpha (TNFα); assay: Expression of TNFα in retina of mouse retinal vein occlusion model by Western blotting; assay type: in vivo; settings: 250 μM, 2 μL intravitreal immediately after vascular occlusion, retina 1 day after occlusion
Procedure: as §1
Using the same method as in Example 3, the retinal veins of mice are occluded by laser irradiation into the veins of the eye.
Immediately after laser irradiation, 2 μL of a TRPV4 inhibitor (250 μM) is administered intravitreally. One day after vascular occlusion, the mice are euthanized by cervical dislocation, and then retinas isolated from removed eyeballs are evaluated by Western blotting.

[4] = system: mouse model of retinal vein occlusion; assay: Late drug administration 7 days after vascular occlusion: suppression of retinal thinning (OCT); assay type: in vivo; settings: 250 μM, 2 μL intravitreal 7 days after occlusion, measured 1 day after administration
Procedure: as §1
(§2) Seven days after vascular occlusion, the retina is damaged, the retinal layer structure is thinned, the blood flow is reduced, and a retinal nonperfusion area exists. Whether the TRPV4 inhibitor restores this condition is evaluated. […]
(§3) Seven days after vascular occlusion, 2 μL of a TRPV4 inhibitor (250 μM) or vehicle is administered intravitreally. One day after administration (8 days after occlusion), the retinal layers are imaged using optical coherence tomography (OCT) and intraocular blood flow is measured using laser speckle.

[5] = system: mouse model of retinal vein occlusion; assay: Late drug administration 7 days after vascular occlusion: ocular blood flow (laser speckle); assay type: in vivo; settings: 250 μM, 2 μL intravitreal 7 days after occlusion, measured 1 day after administration
Procedure: as §1, §2, §3

[6] = system: mouse model of retinal vein occlusion; assay: Late drug administration 7 days after vascular occlusion: retinal nonperfusion area (FITC-dextran flat mount); assay type: in vivo; settings: 250 μM, 2 μL intravitreal 7 days after occlusion, 1 day after administration
Procedure: as §1, §2
as §3, with “speckle. […]” for “speckle.”

diabetic model mice = settings: cited from earlier work; for retinal edema: single intravitreal administration
[7] = final concentration 10 μM, compared to VEGF-added group, 24 hours

## O=C([C@H](O)c1cccc(Cl)c1)N1CCc2nc(C3(c4ccccc4)CC3)[nH]c(=O)c2C1 [Compound A, (R)-6-(2-(3-chlorophenyl)-2-hydroxyacetyl)-2-(1-phenylcyclopropyl)-5,6,7,8-tetrahydropyrido[4,3-d]pyrimidin-4(3H)-one]
[1]; 25 μM
  inhibition rate of the increase in the thickness of the retinal inner nuclear layer (INL): 40%
[1]; 250 μM
  inhibition rate of the increase in the thickness of the retinal inner nuclear layer (INL): 76%
[2]; final concentration 1 μM, 10 μM, VEGF 10 ng/mL or GSK1016790A 10 nM added, 24 hours
  inhibition rate of increased vascular permeability (TEER): ≥ 50%
[3]
  inhibition rate of the increase in TNF expression: ≥ 50%
[4]
  inhibition of retinal thinning: ≥ 30%
[5]
  improvement of ocular blood flow reduction rate: ≥ 30%
[6]
  inhibition rate of nonperfusion areas in the retina: ≥ 50%

## CC(C)(O)c1cnc(N2C[C@@]3(CCC[C@](C)(Cn4cnc5ccc(C#N)cc54)C3)OC2=O)cn1 [Compound B, 1-(((5S,7S)-3-(5-(2-hydroxypropan-2-yl)pyrazin-2-yl)-7-methyl-2-oxo-1-oxa-3-azaspiro[4.5]decan-7-yl)methyl)-1H-benzo[d]imidazole-6-carbonitrile]
[1]; 250 μM
  inhibition rate of the increase in the thickness of the retinal inner nuclear layer (INL): 62%
[2]; 24 h
  inhibition at 10 µM: ≥ 30%

## O=C(NC1(c2ccccc2)CC1)c1c(CN2CCC(N3CCCCC3)CC2)c(-c2cccc(C(F)(F)F)c2)nc2cc(Br)ccc12 [Compound C, 3-(1,4′-bipiperidin-1′-ylmethyl)-7-bromo-N-(1-phenylcyclopropyl)-2-[3-(trifluoromethyl)phenyl]-4-quinolinecarboxamide]
[1]; 250 μM
  inhibition rate of the increase in the thickness of the retinal inner nuclear layer (INL): 59%
[2]; [7]
  inhibition at 10 µM: ≥ 30%
Diabetic model mice; Non-Patent Literature 11
  retinal thinning: not suppressed
  retinal edema: it does not
Diabetic model mice; Patent Literature 2
  retinal edema: suppresses retinal edema

## Cc1c(C(=O)Nc2cccc(C(F)(F)F)c2)cc(-c2ccccc2)n1CCCN1CCOCC1 [Compound D, N-(3-(trifluoromethyl)phenyl)-2-methyl-1-(3-morpholinopropyl)-5-phenyl-1H-pyrrole-3-carboxamide]
[1]; 250 μM
  inhibition rate of the increase in the thickness of the retinal inner nuclear layer (INL): 64%
[2]; [7]
  inhibition at 10 µM: ≥ 30%

## CC(C)C[C@H](NC(=O)c1cc2ccccc2s1)C(=O)N1CCN(C(=O)[C@H](CO)NS(=O)(=O)c2ccc(Cl)cc2Cl)CC1 [GSK1016790A]
[2]; GSK1016790A final concentration 10 nM
  change of transepithelial electrical resistance (TEER values): decreases transepithelial electrical resistance

## VEGF
[2]; VEGF final concentration 10 ng/mL
  change of transepithelial electrical resistance (TEER values): decreases transepithelial electrical resistance
